Structures are written as SMILES.

Usually IC50 stands for the concentration needed to halve the response being measured. A low value points to higher potency. As a reminder, the melting point is the temperature, or range, at which the solid turns liquid. What is called inhibition is how much of the control response was suppressed. Low readings indicate little suppression, high ones strong suppression.

Series [1] addresses T1, EML4-ALK fusion protein v1 (Homo sapiens, UniProt Q9UM73, D1529E/I1461V/K1491R).
T1 construct: FLAG (N); made in house
Description: Inhibitory activity against the kinase activity of EML4-ALK fusion protein v1 (Test Example 1). In kind it is biochemical. The settings on record: ATP 100 μM, reaction 1 hour, HTRF KinEASE-TK. The procedure: (§1) EML4-ALK fusion protein v1 (purified from BA/F3 cells expressing EML4-ALK fusion protein v1) was investigated for its phosphorylation activity toward a peptide substrate by using a kinase activity detection kit (HTRF KinEASE-TK; Cisbio Inc.). […] The ATP concentration used was 100 μM. Another reaction solution was prepared to contain the enzyme protein but no test compound (in which the solvent DMSO alone was added at 0.4% in place of the test compound), followed by reaction in the same manner with or without ATP addition. […] The concentration causing 50% inhibition (IC50) was calculated for each test compound by the logistic regression method.
(§2) N-terminally FLAG-tagged EML4-ALK fusion protein v1 was inserted into a vector pMX-iresCD8 capable of co-expression of insert cDNA and cell surface antigen CD8 (J. Biol. Chem., 2001, vol. 276, p. 39012-39020) to create a vector FLAG-EML4-ALKv1/pMX-iresCD8 expressing both FLAG-EML4-ALKv1 and CD8. FLAG-EML4-ALKv1/pMX-iresCD8 was used to create a recombinant retrovirus in the same manner as described above and infected into mouse lymphoid cell line BA/F3 cells. Using a magnetic bead reagent for cell separation and a purification column (anti-CD8 monoclonal antibody immobilized on magnetic beads and a MiniMACS purification column; both are products of Miltenyi Biotec Inc.), cell surface CD8-expressing cells were purified conveniently. […] After washing 3 times with PBS, the cells were lysed in a lysis solution (50 mM Tris.HCl (pH 7.4), 150 mM NaCl, 1% Triton X100, 5 mM EDTA, 5 mM EGTA, 1 mM NaVO4, 1 mM DTT and protease inhibitor cocktail complete). The EML4-ALK fusion protein v1 present in the supernatant obtained after centrifugation was purified using ANTI-FLAG M2 Affinity Gel (SIGMA-ALDRICH Inc.) according to the method described in the product information document.
(§3) The EML4-ALK fusion protein v1 purified as above was investigated for its phosphorylation activity toward a peptide substrate using a kinase activity detection kit (HTRF KinEASE-TK; Cisbio Inc.). Using TK substrate 1, which was included in the kit, as the substrate, and after adding no ATP or 100 μM ATP, the mixtures were reacted at room temperature for 1 hour, and the count of HTRF was detected as recommended by the Kits manufacturer.
(In general: Time-resolved FRET reads energy transfer from a long-lived donor to a nearby acceptor.)

Series [2] deals with human non-small cell lung cancer cell line NCI-H2228 cells (EML4-ALK fusion protein-expressing cells). Description: Inhibitory effect against anchorage-independent cell growth of NCI-H2228 cells (Test Example 3). In kind it is cell-based. The settings on record: 120 h, spheroid plate, 5 days, CellTiter-Glo. The text has this:
Measurement for anchorage-independent cell growth (colony method, etc) has been known to be a system for investigating the anticancer action (pharmacological effect) of test compounds (Clinical Oncology, second edition, Cancer and Chemotherapy Publishers Inc.). In place of the colony method, there is a following method using spheroid plates for measuring the growth of non-attached cells.
(§4) In a 96-well spheroid plate (Sumilon Celltight Spheroid 96U; Sumitomo Bakelite Co., Ltd., Japan), human non-small cell lung cancer cell line NCI-H2228 cells were seeded at 2000 cells per well in RPMI1640 medium (Invitrogen) containing 10% fetal bovine serum. NCI-H2228 cells are those expressing another EML4-ALK fusion protein, which is different from the EML4-ALK fusion protein v1 because it is encoded by an EML4-ALK fusion polynucleotide whose fusion point on EML4 cDNA is different from that of the EML4-ALK fusion polynucleotide v1, but whose ALK region is the same as that of the EML4-ALK fusion polynucleotide v1. The above NCI-H2228 cells seeded in the plate were cultured overnight under 5% CO2 at 37° C., followed by addition of a test compound (final concentration: 10 μM to 1 nM). As a negative control, DMSO used as a solvent was added at the same concentration as the test compound. Then, the cells were cultured under 5% CO2 at 37° C. for 5 days. A cell counting reagent (CellTiter-Glo™ Luminescent Cell Viability Assay; Promega) was added and agitated for 20 minutes, followed by measurement with a luminometer (ML3000 microtiter plate luminometer; Dynatech Laboratories).
(In general: Cellular ATP, detected with luciferase, serves as a proxy for viable cell number.)

Series [3] concerns human non-small cell lung cancer cell line HCC827 cells (mutant EGFR protein-expressing cells). Description: Inhibitory effect against anchorage-independent cell growth of HCC827 cells (Test Example 4). In kind it is cell-based. Conditions: 120 h, spheroid plate, 5 days, CellTiter-Glo. As to the method:
as §4
Evaluation of Inhibitory Effect Against Anchorage-Independent Cell Growth of Human Non-Small Cell Lung Cancer Cell Line HCC827 Cells (Mutant EGFR (with Partial Deletion of Exon 19 in EGFR) Protein-Expressing Cells, American Type Culture Collection)
Evaluation was performed in the same manner as shown in Test Example 3.

Series [4] deals with T1, EML4-ALK fusion protein v1. As to the kind of experiment: Inhibitory effect of compounds against the in vitro kinase activity of EML4-ALK fusion protein v1, single concentration (Test Example 12(3)). In kind it is biochemical. The settings on record: final concentration 10 μM.
Text: as §2, §3

The target of series [5] is T2, Mutant EGFR (L858R) protein (Homo sapiens, UniProt P00533, L858R).
T2 construct: purchased Cana Biosciences Inc., Japan (sic; Carna Biosciences)
T2 sequence (P00533 25-1210 L858R): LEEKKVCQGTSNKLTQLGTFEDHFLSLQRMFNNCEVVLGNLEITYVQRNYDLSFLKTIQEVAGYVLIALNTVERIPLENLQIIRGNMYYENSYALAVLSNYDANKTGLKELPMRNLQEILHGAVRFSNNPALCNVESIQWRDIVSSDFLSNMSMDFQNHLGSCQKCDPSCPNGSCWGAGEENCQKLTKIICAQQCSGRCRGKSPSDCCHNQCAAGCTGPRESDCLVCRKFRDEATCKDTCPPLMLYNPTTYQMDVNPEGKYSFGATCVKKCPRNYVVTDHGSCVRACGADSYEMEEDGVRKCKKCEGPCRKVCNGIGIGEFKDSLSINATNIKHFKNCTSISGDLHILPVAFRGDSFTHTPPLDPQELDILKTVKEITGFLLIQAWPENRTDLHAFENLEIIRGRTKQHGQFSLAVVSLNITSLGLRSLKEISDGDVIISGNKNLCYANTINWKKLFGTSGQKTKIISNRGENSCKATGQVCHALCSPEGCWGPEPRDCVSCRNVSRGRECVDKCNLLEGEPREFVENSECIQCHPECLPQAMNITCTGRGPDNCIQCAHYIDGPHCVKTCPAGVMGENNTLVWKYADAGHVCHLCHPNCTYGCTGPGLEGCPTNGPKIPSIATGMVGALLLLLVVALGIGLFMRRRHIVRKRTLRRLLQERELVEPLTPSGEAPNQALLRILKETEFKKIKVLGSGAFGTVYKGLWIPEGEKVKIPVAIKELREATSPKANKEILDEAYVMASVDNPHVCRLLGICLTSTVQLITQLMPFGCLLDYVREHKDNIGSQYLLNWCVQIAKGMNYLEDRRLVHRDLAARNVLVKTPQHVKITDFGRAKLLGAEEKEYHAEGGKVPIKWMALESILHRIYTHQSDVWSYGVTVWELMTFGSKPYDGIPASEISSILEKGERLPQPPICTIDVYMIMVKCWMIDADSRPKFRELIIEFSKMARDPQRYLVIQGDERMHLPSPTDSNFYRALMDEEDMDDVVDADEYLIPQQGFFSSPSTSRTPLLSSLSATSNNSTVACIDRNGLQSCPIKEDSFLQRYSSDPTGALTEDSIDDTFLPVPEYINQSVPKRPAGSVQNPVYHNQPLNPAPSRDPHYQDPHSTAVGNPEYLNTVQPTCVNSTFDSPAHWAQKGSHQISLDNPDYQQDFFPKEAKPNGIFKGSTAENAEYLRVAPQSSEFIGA
As to the kind of experiment: Inhibitory activity against the kinase activity of mutant EGFR (L858R) protein (Test Example 2). The settings on record: ATP 5 μM, reaction 1 hour, HTRF KinEASE-TK. In kind it is biochemical. As to the method:
The ATP concentration used was 5 μM. Another reaction solution was prepared to contain the enzyme protein but no test compound (in which the solvent DMSO alone was added at 0.4% in place of the test compound), followed by reaction in the same manner with or without ATP addition. […] The concentration causing 50% inhibition (IC50) was calculated for each test compound by the logistic regression method.

The target in the next series is T3, MUSK (Homo sapiens, UniProt O15146).
T3 sequence (O15146 24-869): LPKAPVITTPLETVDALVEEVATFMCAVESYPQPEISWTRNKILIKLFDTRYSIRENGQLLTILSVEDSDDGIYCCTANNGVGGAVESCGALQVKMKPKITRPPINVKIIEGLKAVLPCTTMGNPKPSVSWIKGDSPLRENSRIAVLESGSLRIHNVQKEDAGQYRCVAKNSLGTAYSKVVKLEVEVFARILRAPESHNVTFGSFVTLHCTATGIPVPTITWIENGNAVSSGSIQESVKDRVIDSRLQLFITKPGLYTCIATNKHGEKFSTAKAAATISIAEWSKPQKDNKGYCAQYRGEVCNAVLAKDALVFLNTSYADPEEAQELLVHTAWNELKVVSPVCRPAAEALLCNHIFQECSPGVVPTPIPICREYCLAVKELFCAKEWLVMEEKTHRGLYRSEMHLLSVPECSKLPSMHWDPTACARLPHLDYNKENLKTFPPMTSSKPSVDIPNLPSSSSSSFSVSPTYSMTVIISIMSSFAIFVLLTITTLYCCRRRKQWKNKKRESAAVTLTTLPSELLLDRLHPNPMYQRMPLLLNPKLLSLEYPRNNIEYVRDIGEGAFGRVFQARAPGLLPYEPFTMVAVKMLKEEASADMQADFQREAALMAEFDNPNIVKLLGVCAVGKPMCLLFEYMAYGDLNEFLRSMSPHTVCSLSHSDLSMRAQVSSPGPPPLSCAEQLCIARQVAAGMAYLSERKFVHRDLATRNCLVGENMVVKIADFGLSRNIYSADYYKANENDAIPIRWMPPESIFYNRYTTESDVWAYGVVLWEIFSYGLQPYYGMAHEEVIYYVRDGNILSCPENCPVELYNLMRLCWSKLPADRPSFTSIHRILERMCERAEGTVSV
Description: Inhibitory activity against the kinase activity of MUSK protein (Test Example 7). Conditions: ATP 10 μM, reaction 1 hour, HTRF KinEASE-TK. Set-up: purchased Carna Biosciences Inc., Japan. In kind it is biochemical. The procedure:
as §1, with “MUSK” for “EML4-ALK fusion”, “(Carna Biosciences Inc., Japan)” for “v1 (purified from BA/F3 cells expressing EML4-ALK fusion protein v1)”, “10” for “100”

T1 sequence (Q9UM73 with tags, fused parts or gaps I1461V/K1491R/D1529E): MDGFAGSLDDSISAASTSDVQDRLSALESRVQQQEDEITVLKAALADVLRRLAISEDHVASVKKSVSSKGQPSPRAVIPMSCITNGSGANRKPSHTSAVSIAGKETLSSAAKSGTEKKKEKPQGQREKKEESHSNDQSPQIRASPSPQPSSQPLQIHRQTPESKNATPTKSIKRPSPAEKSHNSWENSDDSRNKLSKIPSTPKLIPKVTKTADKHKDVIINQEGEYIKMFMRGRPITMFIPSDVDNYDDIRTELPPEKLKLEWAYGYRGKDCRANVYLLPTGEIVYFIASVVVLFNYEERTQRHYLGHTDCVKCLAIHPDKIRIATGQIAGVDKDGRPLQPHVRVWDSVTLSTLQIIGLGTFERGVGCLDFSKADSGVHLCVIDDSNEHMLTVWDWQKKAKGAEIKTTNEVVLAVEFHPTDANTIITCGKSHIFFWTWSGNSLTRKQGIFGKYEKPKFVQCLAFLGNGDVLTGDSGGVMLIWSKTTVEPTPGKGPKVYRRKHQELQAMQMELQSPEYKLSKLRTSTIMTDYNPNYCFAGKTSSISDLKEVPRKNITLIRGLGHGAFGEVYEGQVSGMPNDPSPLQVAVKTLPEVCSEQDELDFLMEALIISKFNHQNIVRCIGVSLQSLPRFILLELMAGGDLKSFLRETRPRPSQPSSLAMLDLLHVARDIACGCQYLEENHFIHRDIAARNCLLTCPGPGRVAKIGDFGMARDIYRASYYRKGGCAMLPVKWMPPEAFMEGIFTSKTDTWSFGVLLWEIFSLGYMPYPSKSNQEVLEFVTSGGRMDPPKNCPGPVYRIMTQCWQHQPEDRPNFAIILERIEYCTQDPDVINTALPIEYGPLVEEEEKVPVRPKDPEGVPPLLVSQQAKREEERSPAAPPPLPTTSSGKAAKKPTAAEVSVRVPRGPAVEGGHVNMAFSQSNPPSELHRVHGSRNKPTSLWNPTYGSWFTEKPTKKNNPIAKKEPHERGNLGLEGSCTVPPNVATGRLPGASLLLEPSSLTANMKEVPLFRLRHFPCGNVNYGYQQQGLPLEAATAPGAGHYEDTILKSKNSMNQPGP

Take `COc1cc(N2CCC(N3CCC(O)C3)CC2)ccc1Nc1ncnc(Nc2ccccc2S(=O)(=O)C(C)C)n1` (stereo not drawn) [Example 63]: the IC50 in series [1] was found to be 26 nM; in series [2], 96 nM; in series [3], 791 nM.

The molecule `COc1cc(N2CCC(N3CCN(C)CC3)CC2)ccc1Nc1ncnc(Nc2ccccc2S(=O)(=O)NC(C)C)n1` [Example 149] showed a melting point of 185 to 189 °C. Besides, in series [1], the IC50 was determined as 40 nM. In addition, the IC50 in series [2] stood at 62 nM. In addition, half-maximal inhibition in series [3] (IC50) was put at 512 nM.

In the case of `COc1cc2ncnc(Nc3ccc(O)c(Br)c3)c2cc1OC` [Compound A, 4-[(3′-bromo-4′-hydroxyphenyl)amino]-6,7-dimethoxyquinazoline], the inhibition at 10 µM in series [4] was determined as 99%.

Turning to `COc1cc(N2CCC(N3CCN(C)CC3)CC2)ccc1Nc1ncnc(Nc2ccccc2S(=O)(=O)N(C)C)n1` [Example 128], the melting point lay in the range of 167 to 170 °C. In addition, half-maximal inhibition in series [1] (IC50) required 2.3 nM. This molecule also came in with an IC50 in series [5] of 98 nM. This molecule came in with an IC50 in series [2] of 64 nM. In series [3], this molecule yielded an IC50 of 175 nM. The IC50 on MUSK came to 1800 nM.

With `COc1cc(N2CC(N3CCN(C)CC3)C2)ccc1Nc1ncnc(Nc2ccccc2S(=O)(=O)C(C)C)n1` [Example 176], the IC50 in series [1] is 150 nM; in series [2], 119 nM; in series [3], 496 nM.

As for `COc1cc(N2CCN(C)CC2)ccc1Nc1ncnc(Nc2ccccc2S(=O)(=O)C(C)C)n1` [Example 24], the IC50 amounted to 29 nM in series [1], 125 nM in series [2] and 1030 nM in series [3].

`COc1cc(N2CCC(N3CCN(C)CC3)CC2)ccc1Nc1ncnc(Nc2ccccc2S(=O)(=O)N(C)C(C)C)n1` [Example 166] had a melting point of 162 to 164 °C. In series [1], the IC50 is 49 nM. In series [2], the concentration for half-maximal inhibition (IC50) was 125 nM. The molecule further displayed a half-inhibitory concentration (IC50) in series [3] of 419 nM.

`COc1cc(N2CCN(C3CCN(C)CC3)CC2)ccc1Nc1nc(Nc2ccccc2S(=O)(=O)C(C)C)c2ccccc2n1` [Example 45] displayed a melting point of 109 to 114 °C. In series [1], this molecule showed an IC50 of 66 nM. Besides, it took 1040 nM to reach half-maximal inhibition in series [2] (IC50). Further, the half-inhibitory concentration (IC50) in series [3] amounted to 1900 nM.

On to `COc1cc(N2CCC3(CCCN3C)CC2)ccc1Nc1ncnc(Nc2ccccc2S(=O)(=O)C(C)C)n1` [Example 120], for which the IC50 in series [1] was found to be 74 nM; in series [2], 168 nM; in series [3] it was 660 nM.

With `COc1cc(N2CCNCC2)ccc1Nc1ncnc(Nc2ccccc2S(=O)(=O)C(C)C)n1` [Example 72], the IC50 was found to be 51 nM in series [1], 93 nM in series [2] and 670 nM in series [3].

With `COc1cc(N2CCC(N3CCCC3)CC2)ccc1Nc1ncnc(Nc2ccccc2S(=O)(=O)C(C)C)n1` [Example 58], the IC50 in series [1] came out at 25 nM; in series [2], 156 nM; in series [3], 648 nM.

As for `CNS(=O)(=O)c1ccccc1Nc1ncnc(Nc2ccc(N3CCC(N4CCN(C)CC4)CC3)cc2OC)n1` [Example 7, 2-{[4-({2-methoxy-4-[4-(4-methylpiperazin-1-yl)piperidin-1-yl]phenyl}amino)-1,3,5-triazin-2-yl]amino}-N-methylbenzenesulfonamide], the figures for the IC50 in series [1], in series [2] and in series [3] were 50 nM, 87 nM and 214 nM, respectively.

Take `COc1cc(N2CCC3(CCCCN3C)CC2)ccc1Nc1ncnc(Nc2ccccc2S(=O)(=O)C(C)C)n1` [Example 12]: the melting point lay within 132 to 135 °C. In series [1], this molecule had an IC50 of 61 nM. This molecule also had an IC50 in series [2] of 134 nM. The molecule further gave an IC50 in series [3] of 509 nM.

On to `O=C(COc1ccc(OC(F)(F)F)cc1)NCc1nc(C(=O)NCCc2cccc(Cl)c2)cs1` [Compound B, N-[2-(3-chlorophenyl)ethyl]-2-[({[4-(trifluoromethoxy)phenoxy]acetyl}amino)methyl]-1,3-thiazole-4-carboxamide], for which the inhibition at 10 µM in series [4] turned out to be 56%.

For the molecule `COc1cc(N(C)C2CCN(C)CC2)ccc1Nc1ncnc(Nc2ccccc2S(=O)(=O)C(C)C)n1` [Example 52], the values for the IC50 in series [1], in series [2] and in series [3] were 72 nM, 159 nM and 820 nM, respectively.

Consider `COc1cc(N2CCC(N3CCN(C)CC3)CC2)ccc1Nc1ncnc(Nc2ccccc2S(=O)(=O)NC2CC2)n1` [Example 171], for which the IC50 in series [1] stood at 33 nM; in series [2] it was 61 nM; in series [3] it was 252 nM.

The values above are taken from US20130096100A1, “DI(ARYLAMINO)ARYL COMPOUND” (ASTELLAS PHARMA INC., priority 2007, published 2013).
